According to ChEMBL document CHEMBL1201862, “PubChem BioAssay data set” (2004):
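Protocol summary: plate cells (96-well), add compound at 5 concentrations, incubate 48 h, interpolate endpoints linearly. GI50: concentration for 50% inhibition of growth.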 Activity calls are given as the source filed them. No stated cut-off is given here; in the data, active = GI50 up to about 1.1 µM and inactive = higher.

Assays:
Test in all cases: growth of human tumour cells (NCI), 48 h
CAKI-1 = system: CAKI-1
DU-145 = system: DU-145
HCC 2998 = system: HCC 2998
HOP-62 = system: HOP-62
HOP-92 = system: HOP-92
HT-29 = system: HT-29
Hs-578T = system: Hs-578T
KM12 = system: KM12
M14 = system: M14
NCI-H226 = system: NCI-H226
NCI-H23 = system: NCI-H23
NCI-H522 = system: NCI-H522
OVCAR-5 = system: OVCAR-5
PC-3 = system: PC-3
RXF 393 = system: RXF 393
SF-268 = system: SF-268
SW-620 = system: SW-620
U-251 = system: U-251
UACC-62 = system: UACC-62

Row | SMILES | GI50 (CAKI-1) | GI50 (DU-145) | GI50 (HCC 2998) | GI50 (HOP-62) | GI50 (HOP-92) | GI50 (HT-29) | GI50 (Hs-578T) | GI50 (KM12) | GI50 (M14) | GI50 (NCI-H226) | GI50 (NCI-H23) | GI50 (NCI-H522) | GI50 (OVCAR-5) | GI50 (PC-3) | GI50 (RXF 393) | GI50 (SF-268) | GI50 (SW-620) | GI50 (U-251) | GI50 (UACC-62)
1 | CC(C)(C)c1cc(C(=O)/C=C/c2cc[nH]n2)cc(C(C)(C)C)c1O | 2.48 µM (inactive) | 2.56 µM (inactive) | 1.88 µM (inactive) | 2.86 µM (inactive) | 2.21 µM (inactive) | 2.61 µM (inactive) | 2.57 µM (inactive) | 2.29 µM (inactive) | 1.82 µM (inactive) | 5.73 µM (inactive) | 2.78 µM (inactive) | 1.43 µM (inactive) | 5.37 µM (inactive) | 2.08 µM (inactive) | 1.69 µM (inactive) | 2.4 µM (inactive) | 2.33 µM (inactive) | 1.73 µM (inactive) | 3.26 µM (inactive)
2 | CN1CCN(CCCCN2c3ccccc3Sc3cc(N=[N+]=[N-])ccc32)CC1 | 2.01 µM (inactive) | 4.21 µM (inactive) | 1.39 µM (inactive) | 2.49 µM (inactive) | 1.94 µM (inactive) | 1.61 µM (inactive) | 1.95 µM (inactive) | 1.84 µM (inactive) | 1.72 µM (inactive) | 5.93 µM (inactive) | 6.31 µM (inactive) | 1.7 µM (inactive) | 12.6 µM (inactive) | 1.82 µM (inactive) | 2.7 µM (inactive) | 6.19 µM (inactive) | 1.98 µM (inactive) | 2.73 µM (inactive) | 2.13 µM (inactive)
3 | CC1=Cc2ccc(C)cc2C(=O)C1=O | 5.07 µM (inactive) | 16.8 µM (inactive) | 14.9 µM (inactive) | 21.3 µM (inactive) | 6.18 µM (inactive) | 20.1 µM (inactive) | 13.9 µM (inactive) | 17.6 µM (inactive) | 4.81 µM (inactive) | 36.1 µM (inactive) | 17.3 µM (inactive) | 1.64 µM (inactive) | 18.3 µM (inactive) | 15.8 µM (inactive) | 1.83 µM (inactive) | 8.67 µM (inactive) | 2.81 µM (inactive) | 20.4 µM (inactive) | 20.2 µM (inactive)
4 | CC(C)OC(=O)c1ccc(NCC2=CC(=O)C=CC2=O)cc1Cl | 2.19 µM (inactive) | 18.3 µM (inactive) | 15.2 µM (inactive) | 32.5 µM (inactive) | 4.89 µM (inactive) | 16.3 µM (inactive) | 23.3 µM (inactive) | 13.5 µM (inactive) | 27.8 µM (inactive) | 25.7 µM (inactive) | 13.2 µM (inactive) | 1.02 µM (active) | 22.2 µM (inactive) | 8.3 µM (inactive) | 17.1 µM (inactive) | 12.1 µM (inactive) | 11.5 µM (inactive) | 16.9 µM (inactive) | 13.2 µM (inactive)
5 | CC1=NN(c2ccccc2)C2(C1)C(Cl)C(=O)N2c1nc2ccccc2s1 (stereo not given) | 66.7 µM (inactive) | 36.2 µM (inactive) | 60.4 µM (inactive) | 25.2 µM (inactive) | 73.6 µM (inactive) | 34.9 µM (inactive) | 50.5 µM (inactive) | 49.5 µM (inactive) | 33.2 µM (inactive) | 15.1 µM (inactive) | 24.2 µM (inactive) | 21.6 µM (inactive) | 41.7 µM (inactive) | 37.1 µM (inactive) | 23.8 µM (inactive) | 29.9 µM (inactive) | 29.9 µM (inactive) | 26 µM (inactive) | 34.4 µM (inactive)
6 | Cc1cc2c(O)c(c1)CN(CC(=O)O)Cc1cc(C)cc(c1O)CN(CC(=O)O)Cc1cc(C)cc(c1O)CN(CC(=O)O)C2 | > 100 µM (inactive) | > 100 µM (inactive) | > 100 µM (inactive) | > 100 µM (inactive) | 64.4 µM (inactive) | > 100 µM (inactive) | > 100 µM (inactive) | > 100 µM (inactive) | > 100 µM (inactive) | > 100 µM (inactive) | > 100 µM (inactive) | > 100 µM (inactive) | > 100 µM (inactive) | > 100 µM (inactive) | > 100 µM (inactive) | > 100 µM (inactive) | > 100 µM (inactive) | > 100 µM (inactive) | > 100 µM (inactive)
7 | [N-]=[N+]=NCC(=O)c1cnc(O)nc1O | > 100 µM (inactive) | > 100 µM (inactive) | > 100 µM (inactive) | > 100 µM (inactive) | > 100 µM (inactive) | > 100 µM (inactive) | > 100 µM (inactive) | > 100 µM (inactive) | > 100 µM (inactive) | > 100 µM (inactive) | > 100 µM (inactive) | > 100 µM (inactive) | > 100 µM (inactive) | > 100 µM (inactive) | > 100 µM (inactive) | > 100 µM (inactive) | > 100 µM (inactive) | > 100 µM (inactive) | > 100 µM (inactive)
8 | CCOC(=O)C(=O)/C(=C/N1C(=O)CC(=O)NC1=S)C(=O)OCC | > 100 µM (inactive) | > 100 µM (inactive) | > 100 µM (inactive) | > 100 µM (inactive) | 9.29 µM (inactive) | > 100 µM (inactive) | 18.7 µM (inactive) | > 100 µM (inactive) | > 100 µM (inactive) | > 100 µM (inactive) | > 100 µM (inactive) | > 100 µM (inactive) | > 100 µM (inactive) | > 100 µM (inactive) | > 100 µM (inactive) | > 100 µM (inactive) | > 100 µM (inactive) | > 100 µM (inactive) | > 100 µM (inactive)
9 | CC1(C)CC[C@]2(C(=O)O)CC[C@]3(C)C(=CC[C@@H]4[C@@]5(C)CC[C@H](OC6OC(CO)C(O)C(O)C6OC6OC(CO)C(O)C(O)C6O)C(C)(C)[C@@H]5CC[C@]43C)[C@@H]2C1 (stereo not given in full) | 19.5 µM (inactive) | 17.2 µM (inactive) | 20.8 µM (inactive) | 17.8 µM (inactive) | 17.6 µM (inactive) | 15.8 µM (inactive) | 24.2 µM (inactive) | 15.5 µM (inactive) | 16.2 µM (inactive) | 17.6 µM (inactive) | 24.9 µM (inactive) | 20.6 µM (inactive) | 2.49 µM (inactive) | 17 µM (inactive) | 19.1 µM (inactive) | 17.2 µM (inactive) | 22.5 µM (inactive) | 2.38 µM (inactive) | 19.3 µM (inactive)
10 | COCN1C(=O)[C@@H]2CCCN2C(=O)c2ccc([N+](=O)[O-])cc21 | > 100 µM (inactive) | > 100 µM (inactive) | > 100 µM (inactive) | > 100 µM (inactive) | > 100 µM (inactive) | > 100 µM (inactive) | > 100 µM (inactive) | > 100 µM (inactive) | > 100 µM (inactive) | > 100 µM (inactive) | > 100 µM (inactive) | > 100 µM (inactive) | > 100 µM (inactive) | > 100 µM (inactive) | > 100 µM (inactive) | > 100 µM (inactive) | > 100 µM (inactive) | > 100 µM (inactive) | > 100 µM (inactive)
